According to patent EP2951180B1, “2,6,7,8 SUBSTITUTED PURINES AS HDM2 INHIBITORS” (Merck Sharp & Dohme Corp., priority 2013, dated 2014):
Like-named read-outs stand apart in the source and are kept apart here.

Target: T1, HDM2 (Homo sapiens, UniProt Q00987)
T1 construct: Thioredoxin (N); made in house; host or cells: E. coli strain BL21(DE3)Rosetta
Experiment: HDM2 FRET assay (inhibition of binding of FITC labeled p53-pocket peptide to HDM2)
Conditions: for IC50: read-out: FRET IC50
In short: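 TR-FRET with 0.5 nM His-tagged recombinant HDM2, 3 nM FITC-labelled p53 peptide and 0.25 nM Tb-anti-His antibody in PBS, 0.01% BSA, 0.01% Tween-20, 0.1% DMSO. IC50 from em520/em495 ratio over 10-point dilutions, 4-parameter logistic fit.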

[1] = 0.5 nM HDM2 (residues 17 to 125), 3nM peptide, two hour incubation at room temperature

T1 sequence (Q00987 17-125): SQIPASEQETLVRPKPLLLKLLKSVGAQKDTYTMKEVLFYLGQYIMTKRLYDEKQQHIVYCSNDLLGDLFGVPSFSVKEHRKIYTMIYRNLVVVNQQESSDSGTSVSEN

**Q.** With `C[C@@H](Nc1nc(C(=O)O)nc2nc(C3=C(c4ccccc4)CCC3)n(Cc3ccc(C(F)(F)F)cc3)c12)C1CCC1` [Example 21.4, 6-{[(1R)-1-cyclobutylethyl]amino}-8-(2-phenylcyclopent-1-en-1-yl)-7-[4-(trifluoromethyl)benzyl]-7H-purine-2-carboxylic acid] as the molecule, how does the IC50 (Table 21) read?
**A.** 6.99 nM

**Q.** How did the IC50 (Table 18) turn out when `CC([C@H]1CC[C@H](C)CC1)n1c(N2CCOC[C@H]2C)nc2nc(-c3noc(=O)[nH]3)nc(N[C@H](C)C3CCC3)c21` (single isomer, unassigned) [Example 18.13] was run?
**A.** 2.27 nM

**Q.** How did the IC50 (Table 11) turn out when `CC(C)C[C@@H]1CCCCN1c1nc2nc(-c3noc(=O)[nH]3)nc(N[C@H](C)C3CCC3)c2n1C[C@H]1CC[C@H](C)CC1` [Example 11.84, 3-(6-{[(1R)-1-cyclobutylethyl]amino}-7-[(trans-4-methylcyclohexyl)methyl]-8-[(2S)-2-(2-methylpropyl)piperidin-1-yl]-7H-purin-2-yl)-1,2,4-oxadiazol-5(4H)-one] was run?
**A.** 3.07 nM

**Q.** With `COc1ccc(C)cc1-c1nc2nc(C(=O)O)nc(NC(C)C3CC(C)C3)c2n1Cc1ccc(C(F)(F)F)cc1` (stereo not shown) [Example 7.18, 8-(2-methoxy-5-methylphenyl)-6-{[1-(3-methylcyclobutyl)ethyl]amino}-7-[4-(trifluoromethyl)benzyl]-7H-purine-2-carboxylic acid] as the molecule, how does the IC50 (Table 7) read?
**A.** 162 nM

**Q.** For `COC(c1ccccc1F)c1nc2nc(-c3n[nH]c(=O)o3)nc(-c3cncc(Cl)c3)c2n1C[C@H]1CC[C@H](C)CC1` (mixture of isomers) [Example 23.103, 5-{6-(5-chloropyridin-3-yl)-8-[(2-fluorophenyl)(methoxy)methyl]-7-[(trans-4-methylcyclohexyl)methyl]-7H-purin-2-yl}-1,3,4-oxadiazol-2(3H)-one], which IC50 (Table 23) is on record?
**A.** 1.7 nM

**Q.** With `C[C@@H](Nc1nc(-c2noc(=O)[nH]2)nc2nc(N3CCOCC3(C)C)n(C[C@H]3CC[C@H](C)CC3)c12)C1CCC1` [Example 11.98, 3-(6-{[(1R)-1-cyclobutylethyl]amino}-8-(3,3-dimethylmorpholin-4-yl)-7-[(trans-4-methylcyclohexyl)methyl]-7H-purin-2-yl)-1,2,4-oxadiazol-5(4H)-one] as the molecule, how does the IC50 (Table 11) read?
**A.** 2.52 nM

**Q.** With `C[C@H]1CC[C@H](Cn2c(N3CCOC[C@H]3c3ccccc3)nc3nc(-c4noc(=O)[nH]4)nc(N4CCCCC4C4CCC4)c32)CC1` (stereo partly drawn) [Example 11.81, 3-{6-(2-cyclobutylpiperidin-1-yl)-7-[(trans-4-methylcyclohexyl)methyl]-8-[(3R)-3-phenylmorpholin-4-yl]-7H -purin-2-yl}-1,2,4-oxadiazol-5(4H)-one] as the molecule, how does the IC50 (Table 11) read?
**A.** 483 nM

**Q.** `C[C@@H]1COC[C@@H](C)N1c1nc2nc(-c3noc(=O)[nH]3)nc(-c3cccc(Cl)c3)c2n1C[C@H]1CC[C@H](C)CC1` [Example 16.60, 3-{6-(3-chlorophenyl)-8-[(3R,5R)-3,5-dimethylmorpholin-4-yl]-7-[(trans-4-methylcyclohexyl)methyl]-7H-purin-2-yl}-1,2,4-oxadiazol-5(4H)-one] was tested. Which IC50 [1] did it give?
**A.** 2.23 nM

**Q.** `C[C@H]1CC[C@H](Cn2c(N3CCOC[C@H]3c3ccccc3)nc3nc(-c4noc(=O)[nH]4)nc(-c4cc(Cl)cnc4OCc4ccccc4)c32)CC1` [Example 16.161, 3-{6-[2-(benzyloxy)-5-chloropyridin-3-yl]-7-[(trans-4-methylcyclohexyl)methyl]-8-[(3R)-3-phenylmorpholin-4-yl]-7H-purin-2-yl}-1,2,4-oxadiazol-5(4H)-one] was tested. Which IC50 [1] did it give?
**A.** 3.65 nM

**Q.** For `CNc1nc(N[C@H](C)C2CCC2)c2c(n1)nc(N1CCOC[C@H]1c1ccccc1)n2C[C@H]1CC[C@H](C)CC1` [Example 13.3, N^6-[(1R)-1-cyclobutylethyl]-N^2-methyl-7-[(trans-4-methylcyclohexyl)methyl]-8-[(3R)-3-phenylmorpholin-4-yl]-7H-purine-2,6-diamine], which inhibition at 1 µM (read-out: % inh. at 1000 nM, at 1000 nM compound) is on record?
**A.** 46%

**Q.** `Cc1cccc(-c2nc3nc(C(=O)O)nc(N[C@H](C)C4CC4)c3n2Cc2ccc(Br)cc2)c1` [Example 6.5, 7-(4-bromobenzyl)-6-{[(1R)-1-cyclopropylethyl]amino}-8-(3-methylphenyl)-7H-purine-2-carboxylic acid] was tested. Which IC50 (Table 6) did it give?
**A.** 234 nM

**Q.** Which IC50 (Table 11) does the source give for `C[C@@H](Nc1nc(-c2noc(=O)[nH]2)nc2nc(N(C)CC3CC3)n(C[C@H]3CC[C@H](C)CC3)c12)C1CCC1` [Example 11.42, 3-(6-{[(1R)-1-cyclobutylethyl]amino}-8-[(cyclopropylmethyl) (methyl)amino]-7-[(trans-4-methylcyclohexyl)methyl]-7H-purin-2-yl)-1,2,4-oxadiazol-5(2H)-one] here?
**A.** 5.34 nM

**Q.** For `Cc1cccc(-c2nc3nc(C(=O)O)nc(N4CCCCC4C4CCC4)c3n2Cc2ccc(C(F)(F)F)cc2)c1` (stereo not shown) [Example 6.95, 6-(2-cyclobutylpiperidin-1-yl)-8-(3-methylphenyl)-7-[4-(trifluoromethyl)benzyl]-7H-purine-2-carboxylic acid], which IC50 (Table 6) is on record?
**A.** 271 nM

**Q.** Which IC50 (Table 23) does the source give for `COC(c1ccccc1C#N)c1nc2nc(-c3noc(=O)[nH]3)nc(-c3cncc(Cl)c3)c2n1C[C@H]1CC[C@H](C)CC1` (mixture of isomers) [Example 23.109, 2-{[6-(5-chloropyridin-3-yl)-7-[(trans-4-methylcyclohexyl)methyl]-2-(5-oxo-4,5-dihydro-1,2,4-oxadiazol-3-yl)-7H-purin-8-yl](methoxy)methyl}benzonitrile] here?
**A.** 0.707 nM

**Q.** Which IC50 (Table 18) does the source give for `CC(C)c1ccnc(-c2nc3nc(-c4noc(=O)[nH]4)nc(N[C@H](C)C4CCC4)c3n2C[C@H]2CC[C@H](C(F)(F)F)CC2)c1` [Example 18.30, 3-(6-{[(1R)-1-cyclobutylethyl]amino}-8-[4-(1-methylethyl)pyridin-2-yl]-7-{[trans-4-(trifluoromethyl)cyclohexyl]methyl}-7H-purin-2-yl)-1,2,4-oxadiazol-5(4H)-one] here?
**A.** 13 nM

**Q.** With `C[C@@H](Nc1nc(C(=O)O)nc2nc(N3CCOCC3)n(Cc3ccc(C(F)(F)F)cc3)c12)C1CCC1` [Example 9.118, 6-{[(1R)-1-cyclobutylethyl]amino}-8-morpholin-4-yl-7-[4-(trifluoromethyl)benzyl]-7H-purine-2-carboxylic acid] as the molecule, how does the IC50 (Table 9) read?
**A.** 51.8 nM

**Q.** For `C[C@H]1CC[C@H](Cn2c(N3CCOC[C@H]3c3ccccc3)nc3nc(-c4noc(=O)[nH]4)nc(-c4ccccc4)c32)CC1` [Example 16.12, 3-(7-(((trans)-4-methylcyclohexyl)methyl)-6-phenyl-8-((R)-3-phenylmorpholino)-7H-purin-2-yl)-1,2,4-oxadiazol-5(4H)-one], which IC50 [1] is on record?
**A.** 10.1 nM

**Q.** How did the IC50 [1] turn out when `C[C@H]1CC[C@H](Cn2c(N3CCO[C@@H]4CCC[C@H]43)nc3nc(-c4noc(=O)[nH]4)nc(-c4cncc(Cl)c4)c32)CC1` [Example 16.87, 3-{6-(5-chloropyridin-3-yl)-8-[(4aR,7aR)-hexahydrocyclopenta [b][1,4]oxazin-4(4aH)-yl]-7-[(trans-4-methylcyclohexyl)met52hyl]-7H-purin-2-yl}-1,2,4-oxadiazol-5(4H)-one] was run?
**A.** 1.56 nM

**Q.** `C[C@@H](Nc1nc(-c2noc(=O)[nH]2)nc2nc(N(C)CC(C)(C)C)n(C[C@H]3CC[C@H](C)CC3)c12)C1CCC1` [Example 11.43, 3-(6-{[(1R)-1-cyclobutylethyl]amino}-8-[(2,2-dimethylpropyl)(methyl)amino]-7-[(trans-4-methylcyclohexyl)methyl]-7H-purin-2-yl)-1,2,4-oxadiazol-5(2H)-one] was tested. Which IC50 (Table 11) did it give?
**A.** 19.4 nM

**Q.** How did the IC50 (Table 23) turn out when `C[C@H]1CC[C@H](Cn2c(C(O)C3CCOCC3)nc3nc(-c4noc(=O)[nH]4)nc(-c4cccc(Cl)c4)c32)CC1` (mixture of isomers) [Example 23.2, 3-{6-(3-chlorophenyl)-8-[hydroxy(tetrahydro-2H-pyran-4-yl)methyl]-7-[(trans-4-methylcyclohexyl)methyl]-7H-purin-2-yl}-1,2,4-oxadiazol-5(4H)-one] was run?
**A.** 51.5 nM

**Q.** With `CC(C)C[C@@H]1COCCN1c1nc2nc(-c3noc(=O)[nH]3)nc(-c3cccc(Cl)c3)c2n1C[C@H]1CC[C@H](C)CC1` [Example 16.40, 3-{6-(3-chlorophenyl)-7-[(trans-4-methylcyclohexyl)methyl]-8-[(3R)-3-(2-methylpropyl)morpholin-4-yl]-7H-purin-2-yl}-1,2,4-oxadiazol-5(4H)-one] as the molecule, how does the IC50 [1] read?
**A.** 4.59 nM

**Q.** Which IC50 (Table 17.2) does the source give for `C[C@@H]1CNCCN1c1nc2nc(-c3noc(=O)[nH]3)nc(N[C@H](C)C3CCC3)c2n1C[C@H]1CC[C@H](C)CC1` [Example 17.19, 3-(6-{[(1R)-1-cyclobutylethyl]amino}-7-[(trans-4-methylcyclohexyl)methyl]-8-[(2R)-2-methylpiperazin-1-yl]-7H-purin-2-yl)-1,2,4-oxadiazol-5(4H)-one] here?
**A.** 15.5 nM

**Q.** `C[C@@H](Nc1nc(-c2noc(=O)[nH]2)nc2nc(C3CC3)n(C[C@H]3CC[C@H](C)CC3)c12)C1CCC1` [Example 21.27, 3-(6-{[(1R)-1-cyclobutylethyl]amino}-8-cyclopropyl-7-[(trans-4-methylcyclohexyl)methyl]-7H-purin-2-yl)-1,2,4-oxadiazol-5(4H)-one] was tested. Which IC50 (Table 21) did it give?
**A.** 18 nM

**Q.** For `C[C@@H]1CN(S(C)(=O)=O)CCN1c1nc2nc(-c3noc(=O)[nH]3)nc(N[C@H](C)C3CCC3)c2n1C[C@H]1CC[C@H](C)CC1` [Example 17.14, 3-(6-{[(1R)-1-cyclobutylethyl]amino}-7-[(trans-4-methylcyclohexyl)methyl]-8-[(2R)-2-methyl-4-(methylsulfonyl)piperazin-1-yl]-7H-purin-2-yl)-1,2,4-oxadiazol-5(4H)-one], which IC50 (Table 17.2) is on record?
**A.** 4.93 nM

**Q.** How did the IC50 (Table 6) turn out when `Cc1cccc(-c2nc3nc(C(=O)O)nc(NCC4CCCCC4)c3n2Cc2ccc(C(F)(F)F)cc2)c1` [Example 6.50, 6-[(cyclohexylmethyl)amino]-8-(3-methylphenyl)-7-[4-(trifluoromethyl)benzyl]-7H-purine-2-carboxylic acid] was run?
**A.** 1370 nM
